Reference: patent publication US9980979B2, “Compounds and methods for enhancing erythropoiesis” (NATIONAL YANG-MING UNIVERSITY, priority 2008, dated 2018)

Columns and labels:
erythropoietin (Epo) [1] = assay: Epo expression in kidney slices (RT-PCR); type: cell-based, mouse; settings: 0.6-100 μg/ml, 16 hr, versus 0 μg/ml, FIG. 3
Procedure: C57BL/6JNarl mice, 8-10 weeks of age, were purchased from the National Laboratory Animal Center (NLAC, Taiwan). The kidney slices of mice were prepared as previously described with modifications (Parrish et al., 1995, Obatomi et al., 1998 and De Kanter et al., 1999). Briefly, mice were sacrificed by cervical dislocation and the kidneys were excised and immediately kept in gassed (95% O2 and 5% CO2) ice-cold sterile Krebs-HEPES buffer (pH 7.4) containing 20 mM HEPES (USB), 128 mM sodium chloride (Sigma-Aldrich), 2.5 mM potassium chloride (Sigma-Aldrich), 2.7 mM calcium chloride (Sigma-Aldrich), 1 mM magnesium chloride (Sigma-Aldrich) and 16 mM D-glucose (Sigma-Aldrich). […]
Kidney slices were preincubated in a 24-well plate (Falcon) containing 1.0 ml/well of gassed (95% O2, 5% CO2) fresh media (DMEM/F12 (Gibco/Invitrogen) containing 15 mM HEPES (USB), 20 mM sodium bicarbonate (Sigma-Aldrich)) and 5% (v/v) FBS (Gibco) for 90˜120 min at 37° C. in a 95% O2: 5% CO2 atmosphere chamber. […] The reverse-transcribed cDNA samples were analyzed by polymerase chain reaction (PCR) using ABI GeneAmp™ system 2700 (Applied Biosystems) with primers targeting toward mouse β-actin (SEQ ID NOs: 1 and 2) and erythropoietin (Epo) (SEQ ID NOs: 3 and 4) (Table 1). Results were compared with control group (0 μg/ml) and expressed as relative index.

[2] = tested on: erythroid progenitor cells (bone marrow cells); assay: BFU-E assay on bone marrow cells isolated from treated mice of the cisplatin-induced acute renal failure model; type: in vivo, C57BL/6JNarl mice; settings: 10~90 mg/kg/day; cells isolated day 28, cultured 12 days; versus control group; FIG. 11
Procedure: (§1) The effects of Compound A treatment on cisplatin-induced acute renal failure animal model were investigated. C57BL/6JNarl mice (8-week-old) were purchased from the National Laboratory Animal Center (NLAC, Taiwan). Cisplatin (Sigma-Aldrich) was dissolved in normal saline (0.9% (w/v) sodium chloride, Sigma-Aldrich) at a concentration of 1 mg/ml, and injected into mice intraperitoneally (i.p.) according to the following schedule: day 1, 7 mg/kg; day 5, 6 mg/kg; and day 9, 6 mg/kg. For cisplatin-untreated normal mice group, normal saline injections of corresponding volumes were given i.p. in parallel. At day 13, serum samples were collected and blood urea nitrogen (BUN) contents were assayed. […]
(§2) At the end of the experiments described in EXAMPLE 6 (i.e., day 28), mice were sacrificed, kidney and liver tissues were removed, and bone marrow cells were isolated. […] The reverse-transcribed cDNA samples were analyzed by PCR using ABI GeneAmp™ system 2700 (Applied Biosystems) and the SYBR Green Master Mix kit (Applied Biosystems) using primers targeting toward mouse glyceraldehyde 3-phosphate dehydrogenase (GAPDH) (SEQ ID NOs: 5 and 6), erythropoietin (Epo) (SEQ ID NOs: 3 and 4) and hepatocyte growth factor (HGF) (SEQ ID NOs: 7 and 8) (Table 1). Results were expressed as relative index±S.E. (n=5˜6). […]

erythropoietin (Epo) [3] = assay: liver expression of Epo in cisplatin-induced acute renal failure animal model (PCR); type: in vivo, mouse; settings: 30~90 mg/kg/day, day 28, versus untreated control group; FIG. 9
Procedure: as §1, §2

[4] = comparison with 3,4′,5-trihydroxy-trans-stilbene (data not shown)

## OC[C@H]1O[C@@H](Oc2c(O)cc(O)cc2/C=C/c2ccc(O)cc2)[C@H](O)[C@@H](O)[C@@H]1O [Compound A, 2,3,5,4′-tetrahydroxystilbene 2-O-β-D-glucopyranoside]
Erythropoietin (Epo) [1]
  expression of Epo in kidney tissue (relative index): increased the expression of Epo in kidney tissue
[2]
  number of BFU-E colonies of bone marrow cells (relative index): significantly increased the number of BFU-E colonies
Erythropoietin (Epo) [3]
  expression of Epo in liver (relative index): significantly increased the expression of Epo in liver
[4]; data not shown
  enhancing renal functions and improving anemia, compared with 3,4′,5-trihydroxy-trans-stilbene: superior to 3,4′,5-trihydroxy-trans-stilbene
[4]; no data shown
  enhancing erythropoiesis and kidney functions, compared with 3,4′,5-trihydroxy-trans-stilbene: superior to 3,4′,5-trihydroxy-trans-stilbene
